The source of these data is ChEMBL document CHEMBL1201862, “PubChem BioAssay data set” (2004).

Activity calls are given as the source filed them. Bounds are passed on as bounds.

In general, AC50 refers to the concentration at which the activity in the assay is half-maximal.

Test [1] addresses DNA dC->dU-editing enzyme APOBEC-3G (Homo sapiens, UniProt Q9HC16). Format: functional.
In test [2] the target is DNA dC->dU-editing enzyme APOBEC-3A (Homo sapiens, UniProt P31941). As to the kind of experiment: Dose Response confirmation of small molecule APOBEC3A DNA Deaminase Inhibitors via a fluorescence-based single-stranded DNA deaminase assay. [Related pubchem assays (depositor defined):AID493011, AID493024]. Format: functional.
Chain of DNA dC->dU-editing enzyme APOBEC-3A (P31941 whole entry): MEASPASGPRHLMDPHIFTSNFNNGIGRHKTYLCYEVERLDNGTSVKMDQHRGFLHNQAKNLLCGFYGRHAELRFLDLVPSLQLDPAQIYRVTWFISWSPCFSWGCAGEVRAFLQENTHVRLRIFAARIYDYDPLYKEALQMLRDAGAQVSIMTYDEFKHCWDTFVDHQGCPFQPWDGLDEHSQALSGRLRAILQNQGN
Test [3] has as its system HEK293. As to the kind of experiment: cells. Format: functional, cell-based. Conditions: Homo sapiens.
The subject of test [4] is HEK293. As to the kind of experiment: cells. Format: functional, cell-based. The following applies: Homo sapiens. The source holds these as a separate data set.
Test [5] relates to HEK293. Put plainly: NOD2 signaling inhibitors in MDP-stimulated cells, cell-based, uHTS, luminescence (AID 2001). Format: functional. Conditions: Homo sapiens.
For test [6], the target named is T1, Calpain-2 catalytic subunit (Sus scrofa, UniProt P43367).
T1 sequence (P43367 whole entry): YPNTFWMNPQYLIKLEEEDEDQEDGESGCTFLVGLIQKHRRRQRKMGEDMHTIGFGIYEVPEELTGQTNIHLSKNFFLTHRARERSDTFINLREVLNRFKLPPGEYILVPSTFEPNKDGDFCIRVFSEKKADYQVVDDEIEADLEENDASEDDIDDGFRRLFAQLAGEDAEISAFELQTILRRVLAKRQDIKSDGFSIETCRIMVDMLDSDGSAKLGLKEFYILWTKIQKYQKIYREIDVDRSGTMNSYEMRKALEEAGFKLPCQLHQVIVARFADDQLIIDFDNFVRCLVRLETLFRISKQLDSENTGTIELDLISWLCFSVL
Put plainly: m-calpain protease blockers, concentration series – biochemical, fluorogenic peptide substrate, dose response (AID 1420). Format: functional.

The test system of test [7] is HEK293. As to the kind of experiment: cells. Format: functional, cell-based. Conditions: Homo sapiens. The source holds these as a separate data set.
Test [8] concerns the target Nucleotide-binding oligomerization domain-containing protein 2 (Homo sapiens, UniProt Q9HC29). As to the kind of experiment: inhibition of NOD2-driven NF-kB reporter – cell-based, luminescence, uHTS, HEK293 (AID 1566). Format: functional.
In test [9] the test system is HEK293. Put plainly: inhibition of NOD1-driven NF-kB reporter – cell-based, luminescence, uHTS, primary screen (AID 1578). The following applies: Homo sapiens. Format: functional.
Test [10] deals with T2, Corticotropin-releasing factor receptor 2/Corticotropin-releasing factor-binding protein (Homo sapiens, UniProt P24387+Q13324).
T2 sequence (Q13324 whole entry): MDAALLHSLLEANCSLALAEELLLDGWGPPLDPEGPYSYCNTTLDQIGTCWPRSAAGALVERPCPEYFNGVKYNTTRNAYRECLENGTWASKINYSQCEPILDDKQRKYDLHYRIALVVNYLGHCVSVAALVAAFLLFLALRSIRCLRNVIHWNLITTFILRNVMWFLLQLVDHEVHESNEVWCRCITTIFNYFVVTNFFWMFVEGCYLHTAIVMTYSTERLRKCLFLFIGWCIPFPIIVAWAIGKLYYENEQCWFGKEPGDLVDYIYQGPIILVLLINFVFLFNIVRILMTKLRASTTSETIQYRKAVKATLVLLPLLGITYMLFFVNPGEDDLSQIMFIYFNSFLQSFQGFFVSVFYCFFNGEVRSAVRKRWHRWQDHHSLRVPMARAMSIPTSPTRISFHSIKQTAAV
T2 sequence (P24387 whole entry): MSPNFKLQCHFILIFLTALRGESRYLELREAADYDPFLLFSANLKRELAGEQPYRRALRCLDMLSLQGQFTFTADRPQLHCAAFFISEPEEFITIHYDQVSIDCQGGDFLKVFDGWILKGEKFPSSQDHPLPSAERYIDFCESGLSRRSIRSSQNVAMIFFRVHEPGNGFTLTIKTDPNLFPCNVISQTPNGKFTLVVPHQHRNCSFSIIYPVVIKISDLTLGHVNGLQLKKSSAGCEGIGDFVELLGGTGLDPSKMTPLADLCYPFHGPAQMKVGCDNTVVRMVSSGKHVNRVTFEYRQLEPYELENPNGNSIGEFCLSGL
Put plainly: Dose Response confirmation of uHTS hits for small molecule antagonists of the CRF-binding protein and CRF-R2 receptor complex. Conditions: read-out: IC50_Mean. Format: functional.

In test [11] the target is T2, Corticotropin-releasing factor receptor 2/Corticotropin-releasing factor-binding protein. Put plainly: activators of CRF receptor 2 with binding protein – uHTS hits, confirmation (AID 602473). Format: functional. Conditions: read-out: EC50_Mean.
Test [12] in a line: THP-1 cell cytotoxicity, dose response, cytotoxicity control for non-replicating M. tuberculosis project (AID 489025). Format: functional.
Test [13] is described as follows: Vero E6 cell cytotoxicity, dose response, cytotoxicity control for non-replicating M. tuberculosis project, secondary assay (AID 492998). Format: functional, VeroE6. The following applies: Vero C1008.
The next test in a line: cells. Format: functional.
Test [14] can be described thus: microbe, parasite or virus in culture. Format: functional. The following applies: Mycobacterium tuberculosis.
The next test addresses T3, Protein RecA (Mycobacterium tuberculosis, UniProt P9WHJ3).
T3 sequence (P9WHJ3 whole entry): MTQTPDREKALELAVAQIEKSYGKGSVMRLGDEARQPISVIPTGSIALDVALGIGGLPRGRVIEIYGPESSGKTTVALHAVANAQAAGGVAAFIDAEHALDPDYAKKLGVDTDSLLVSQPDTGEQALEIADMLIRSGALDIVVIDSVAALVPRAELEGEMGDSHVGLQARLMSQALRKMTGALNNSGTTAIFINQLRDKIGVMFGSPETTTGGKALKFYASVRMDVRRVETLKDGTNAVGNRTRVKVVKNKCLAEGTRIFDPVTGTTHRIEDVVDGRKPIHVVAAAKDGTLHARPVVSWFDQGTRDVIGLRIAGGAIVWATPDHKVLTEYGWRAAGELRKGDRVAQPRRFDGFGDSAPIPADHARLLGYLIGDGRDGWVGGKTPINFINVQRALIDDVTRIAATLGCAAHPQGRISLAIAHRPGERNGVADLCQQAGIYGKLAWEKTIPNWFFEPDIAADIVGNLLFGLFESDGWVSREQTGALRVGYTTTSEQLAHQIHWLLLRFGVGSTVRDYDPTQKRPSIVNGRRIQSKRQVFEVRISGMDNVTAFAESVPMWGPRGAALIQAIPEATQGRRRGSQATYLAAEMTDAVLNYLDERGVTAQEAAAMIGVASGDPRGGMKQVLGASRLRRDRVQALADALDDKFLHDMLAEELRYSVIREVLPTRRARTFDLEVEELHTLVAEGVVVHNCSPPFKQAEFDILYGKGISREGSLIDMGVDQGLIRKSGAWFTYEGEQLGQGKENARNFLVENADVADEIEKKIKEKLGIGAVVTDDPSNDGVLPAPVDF
Put plainly: Fluorescence Cell-Free Homogeneous Dose Retest to Identify Inhibitors of RecA-Intein Splicing Activity. [Related pubchem assays (depositor defined):AID2097, AID2223, AID489010, AID492950]. Format: functional.

The target in test [15] is T4, Replicative DNA helicase DnaB (Mycobacterium tuberculosis, UniProt P9WMR3).
T4 sequence (P9WMR3 whole entry): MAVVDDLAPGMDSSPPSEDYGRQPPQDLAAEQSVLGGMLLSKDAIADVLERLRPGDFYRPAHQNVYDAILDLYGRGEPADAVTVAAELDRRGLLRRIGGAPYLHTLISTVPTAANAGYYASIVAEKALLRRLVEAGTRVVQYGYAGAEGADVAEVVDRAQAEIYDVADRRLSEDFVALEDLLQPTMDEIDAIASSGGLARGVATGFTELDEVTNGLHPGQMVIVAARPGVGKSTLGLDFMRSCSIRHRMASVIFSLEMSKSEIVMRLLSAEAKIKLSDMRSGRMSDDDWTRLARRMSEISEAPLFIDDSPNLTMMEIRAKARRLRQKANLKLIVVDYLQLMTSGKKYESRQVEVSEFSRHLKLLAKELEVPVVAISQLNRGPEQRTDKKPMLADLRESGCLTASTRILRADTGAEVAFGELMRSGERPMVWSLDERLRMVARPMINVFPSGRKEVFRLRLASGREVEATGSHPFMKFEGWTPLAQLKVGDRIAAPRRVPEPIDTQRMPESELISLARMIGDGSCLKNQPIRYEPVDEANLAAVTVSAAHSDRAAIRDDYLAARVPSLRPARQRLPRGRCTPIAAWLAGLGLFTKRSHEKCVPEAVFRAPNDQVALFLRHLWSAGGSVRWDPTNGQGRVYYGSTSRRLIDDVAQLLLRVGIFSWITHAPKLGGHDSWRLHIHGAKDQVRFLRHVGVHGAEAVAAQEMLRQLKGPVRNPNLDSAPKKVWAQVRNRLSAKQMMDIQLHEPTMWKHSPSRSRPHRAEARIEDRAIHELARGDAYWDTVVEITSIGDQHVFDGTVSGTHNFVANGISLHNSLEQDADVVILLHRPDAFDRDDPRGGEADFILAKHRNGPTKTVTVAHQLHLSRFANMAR
Put plainly: DnaB intein splicing inhibitors, dose response, biochemical, cell-free fluorescence (AID 449749). Format: functional.

Test [16] deals with T5, Microphthalmia-associated transcription factor (Homo sapiens, UniProt O75030).
T5 sequence (O75030 whole entry): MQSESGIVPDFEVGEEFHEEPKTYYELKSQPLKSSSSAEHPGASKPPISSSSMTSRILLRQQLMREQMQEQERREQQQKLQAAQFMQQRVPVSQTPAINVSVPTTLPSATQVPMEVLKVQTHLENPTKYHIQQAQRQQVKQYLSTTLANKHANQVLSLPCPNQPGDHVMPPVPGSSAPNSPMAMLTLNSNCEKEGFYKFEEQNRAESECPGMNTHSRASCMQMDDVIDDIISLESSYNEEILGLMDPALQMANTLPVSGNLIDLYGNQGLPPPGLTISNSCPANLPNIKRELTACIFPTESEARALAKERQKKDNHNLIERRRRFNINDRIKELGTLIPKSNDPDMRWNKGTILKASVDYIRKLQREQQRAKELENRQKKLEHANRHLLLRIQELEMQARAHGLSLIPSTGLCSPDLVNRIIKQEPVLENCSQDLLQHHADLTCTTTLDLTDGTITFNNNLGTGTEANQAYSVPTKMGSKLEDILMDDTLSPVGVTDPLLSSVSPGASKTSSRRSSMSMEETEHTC
Put plainly: reducers of TRPM1 reporter luminescence, concentration series – cell-based, SK-MEL-5, cherry-picked, set 3, MITF inhibitor project, dose response (AID 493073).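 Note: SK-MEL-5 melanoma cells with luciferase driven by the MITF target TRPM1 promoter.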 Format: functional.

Chain of DNA dC->dU-editing enzyme APOBEC-3G (Q9HC16 whole entry): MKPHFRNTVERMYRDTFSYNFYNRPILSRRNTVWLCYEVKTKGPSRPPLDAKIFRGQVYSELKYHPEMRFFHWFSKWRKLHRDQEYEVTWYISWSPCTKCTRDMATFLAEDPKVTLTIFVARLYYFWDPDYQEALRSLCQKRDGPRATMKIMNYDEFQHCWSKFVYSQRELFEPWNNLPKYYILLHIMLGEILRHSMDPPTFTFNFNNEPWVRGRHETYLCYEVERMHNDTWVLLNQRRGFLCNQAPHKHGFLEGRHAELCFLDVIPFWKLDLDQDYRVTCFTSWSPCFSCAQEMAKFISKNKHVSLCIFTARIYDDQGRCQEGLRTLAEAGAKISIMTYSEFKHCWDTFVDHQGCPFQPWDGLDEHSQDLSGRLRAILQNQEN
Chain of Nucleotide-binding oligomerization domain-containing protein 2 (Q9HC29 whole entry, the tested form may be a part): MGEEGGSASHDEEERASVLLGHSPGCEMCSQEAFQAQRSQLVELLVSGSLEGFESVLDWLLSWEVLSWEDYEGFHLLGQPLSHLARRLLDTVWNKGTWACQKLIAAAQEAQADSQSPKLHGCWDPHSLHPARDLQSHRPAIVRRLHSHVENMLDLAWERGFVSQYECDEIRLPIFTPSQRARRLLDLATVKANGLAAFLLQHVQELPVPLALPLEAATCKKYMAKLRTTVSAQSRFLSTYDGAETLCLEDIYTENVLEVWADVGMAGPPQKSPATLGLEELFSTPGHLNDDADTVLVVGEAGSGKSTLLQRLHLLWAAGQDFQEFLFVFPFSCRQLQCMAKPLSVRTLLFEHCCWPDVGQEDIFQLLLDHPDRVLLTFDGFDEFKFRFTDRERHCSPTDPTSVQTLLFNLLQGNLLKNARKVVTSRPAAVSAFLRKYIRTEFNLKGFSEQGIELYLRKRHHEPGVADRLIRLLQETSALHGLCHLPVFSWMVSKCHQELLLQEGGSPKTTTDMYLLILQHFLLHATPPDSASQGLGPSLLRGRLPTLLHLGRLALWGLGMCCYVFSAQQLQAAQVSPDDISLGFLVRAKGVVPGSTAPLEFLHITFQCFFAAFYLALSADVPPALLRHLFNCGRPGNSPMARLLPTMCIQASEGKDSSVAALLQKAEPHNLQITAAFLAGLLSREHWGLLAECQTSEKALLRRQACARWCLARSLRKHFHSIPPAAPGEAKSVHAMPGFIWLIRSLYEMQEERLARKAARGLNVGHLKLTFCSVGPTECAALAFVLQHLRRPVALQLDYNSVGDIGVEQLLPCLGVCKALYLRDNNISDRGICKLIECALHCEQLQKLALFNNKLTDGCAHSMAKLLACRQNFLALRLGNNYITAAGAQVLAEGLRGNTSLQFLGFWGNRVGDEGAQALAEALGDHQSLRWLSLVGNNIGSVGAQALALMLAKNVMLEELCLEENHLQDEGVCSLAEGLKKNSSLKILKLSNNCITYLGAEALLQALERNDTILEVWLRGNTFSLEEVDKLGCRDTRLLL

Consider `CCN1C(NCCCOC(C)C)=N[C@@H](CCc2ccccc2)[C@H](C(=O)NCCCOC(C)C)[C@H]1C`, for which the IC50 in test [1] is 3.6 µM (active); in [2], 2.91 µM (active).

For the compound `CCc1ccc(C(=O)OCC(=O)c2c(N)n(CC(C)C)c(=O)n(C)c2=O)cc1`, the IC50 in the test with HEK293 [3] is > 20 µM (inactive); in the test with HEK293 [4], 8.39 µM (active); in the test on HEK293 [5], 15.6 µM (inactive); in [6] it was 2.96 µM (not active); in the test on HEK293 [7] it was 13.8 µM (active). For the same compound, the figures for the EC50 (in [8]; in the test on HEK293 [9]) were > 20 µM (inactive) and 12.4 µM (active), respectively.

With `Cn1c(-[n+]2c(-c3ccccc3)cc(-c3ccccc3)cc2-c2ccccc2)nc2cc([N+](=O)[O-])ccc21`, the IC50 in test [1] is 22.7 µM (active); in [2], 19.1 µM (active).

In the case of `COc1ccc(N(CC(=O)NCCSc2ccc(C)cc2)S(=O)(=O)c2ccccc2)c(OC)c1`, the IC50 is 9.82 µM (active) in test [1] and 10.9 µM (active) in test [2].

With `Cc1nc2ccc(NS(=O)(=O)c3ccc(C)c(C)c3)cc2s1`, the IC50 in the test on HEK293 [3] was > 20 µM (inactive); in the test on HEK293 [4], 10.9 µM (active); with HEK293 [5] it was 10.4 µM (inactive); in test [10] it was > 47.1 µM (inactive); in the test with HEK293 [7] it was > 20 µM (inactive). The EC50 was 9.53 µM (active) in test [8], 3.65 µM (active) in the test on HEK293 [9] and > 53 µM (inactive) in test [11].

On to `FC(F)(Cl)c1nnc2ccc(Cl)nn12`, for which the CC50 in [12] was 10.8 µM (active); in test [13], 16.7 µM (active); in test [14], 16.5 µM (active). Besides, the IC50 in the test “cells” was 0.75 µM (active).

For `O=C(CCl)N1N=C(c2ccco2)CC1c1cccs1` (centres undefined), the values for the EC50 (on Protein RecA; in test [8]; in the test with HEK293 [9]) were 2.16 µM (active), 16.7 µM (active) and 7.24 µM (active), respectively. In addition, the concentration at half-maximal activity (AC50) in test [15] was 92.5 µM (active); in [16], 7.84 µM (active). In addition, the IC50 in the test on HEK293 [3] was > 20 µM (inactive); in the test with HEK293 [4] it was 5.32 µM (active); in the test with HEK293 [5], 4.77 µM (active); with HEK293 [7] it was > 20 µM (inactive).
